Tests used:
[1] = system: OPA1, DRP1 and FIS1 genes in HK-2 cells; assay: qPCR expression of mitochondrial fusion- and fission-related genes; type: cell-based, human; details: co-treatment with 100 μM BSO, DHMBA 250 μM and 500 μM
Description: (§1) The expression levels of genes related to mitochondrial fusion (OPA1) and genes related to fission (DRP1 and FIS1) were measured in a similar manner to that described above. A comparison was performed with the control group as 1. The figure was expressed as a mean value±SD (n=4 for each group). Each expression level was corrected by the expression level of β-actin.

[2] = system: Keap1-Nrf2 pathway; details: cited from earlier work
[3] = system: intracellular ROS in HK-2 cells; assay: Intracellular ROS production level (DCFDA staining); type: cell-based, human; details: 24 hours
Description: The production level of intracellular ROS was measured to assess changes in intracellular ROS by DHMBA under oxidative stress stimulation.
The HK-2 cells were seeded into a black 96-well plate to be 3.0×10^3 cells/well and cultured for 24 hours. Next, BSO and DHMBA were added in an amount of 100 μL/well to have a final concentration of BSO of 100 μM and a final concentration of DHMBA of 250 μM and 500 μM. After 24 hours, a supernatant was removed, a DCFDA reagent (Sigma) diluted to 25 μM with serum-free DMEM was added in an amount of 100 μL/well, and the cells were cultured at 37° C. for 40 minutes. Furthermore, after the cells were washed with PBS, PBS was added in an amount of 100 μL/well, and fluorescence was measured using a plate reader (Wallac 1420 ARVO Mx plate reader) at an excitation wavelength of 485 nm and a fluorescence wavelength of 535 nm (n=6 for each group) and observed and photographed with a fluorescence microscope BZ-9000 (Keyence).

[4] = system: mitochondria of HK-2 cells; assay: Mitochondrial morphology observation (MitoTracker Green FM / Hoechst 33342); type: cell-based, human; details: 24 hours
Description: Excessively produced ROS induces mitochondrial fission, causing mitochondrial fragmentation and dysfunction (Zorov D, et al., Cells, 8:175, 2019). In order to observe whether or not DHMBA influences mitochondrial morphological changes under oxidative stress stimulation, double staining of mitochondria and nuclei was performed using MitoTracker (registered trademark) Green FM (Thermo Fisher Scientific), which reacts to mitochondrial membrane potential differences, and Hoechst 33342 (DOJINDO LABORATORIES), which binds to nuclear DNA.
The HK-2 cells were seeded into 35 mm dishes to be 5.0×10^4 cells/dish and cultured for 24 hours. Next, BSO and DHMBA were added in an amount of 2 mL/well to have a final concentration of BSO of 100 μM and a final concentration of DHMBA of 250 μM and 500 μM. After 24 hours, a mixed solution of 0.1 μM MitoTracker (registered trademark) Green FM and 5 μg/mL Hoechst 33342 was added in an amount of 2 mL/dish, and the cells were cultured at 37° C. for 20 minutes and washed with PBS. Afterwards, 1 mL of PBS was added, and fluorescence images were obtained at 100 times using a fluorescence microscope BZ-9000 (Keyence).

[5] = system: BIK and ENDOG genes in HK-2 cells; assay: qPCR expression of cell and mitochondrial damage-related genes; type: cell-based, human; details: 24 hours
Text: Under oxidative stress stimulation, ENDOG that resides in a mitochondrion migrates to the nucleus and acts on nuclear DNA fragmentation. In addition, when nuclear DNA is damaged, BIK increases and acts with intramitochondrial factors, inducing apoptosis, a type of cell death (Li L Y, et al., Nature, 412:95-99, 2001; Kutuk O, et al., PLOS One, 12: e0182809, 2017).
Therefore, in the present invention, the effect of DHMBA on cell death markers BIK and ENDOG, which increase under oxidative stress stimulation, was verified.
The HK-2 cells were seeded into a 6-well plate to be 5.0×10^4 cells/well and cultured for 24 hours. Next, BSO and DHMBA were added in an amount of 2 mL/well to have a final concentration of BSO of 100 μM and a final concentration of DHMBA of 250 μM and 500 μM. After 24 hours, total RNA extraction was recovered using a NucleoSpin (registered trademark) RNA kit (MACHEREY-NAGEL). The concentration of purified RNA was quantified by the Nanodrop (Invitrogen). From 1.0 μg of total RNA, cDNA was synthesized according to the protocol of ReverTra ACE (registered trademark) qPCR RT Master Mix with gDNA Remover (TOYOBO). The gene expression levels were measured according to the protocol of THUNDERBIRD (registered trademark) SYBR (registered trademark) qPCR Mix (TOYOBO). The measurement was performed using the CFX Connect™ Real-Time PCR Detection System (BioRad), and analysis was performed by the 2^−(ΔΔCT) method.
A comparison was performed with the gene expression level of the control group as 1. The figure was expressed as a mean value±SD (n=4 for each group). Each expression level was corrected by the expression level of β-actin, which is a housekeeping gene.

[6] = system: human renal proximal tubular cells HK-2; assay: LDH cytotoxicity test under BSO oxidative stress; type: cell-based; details: 48 hours
Description: (§2) Human renal proximal tubular cells (HK-2) were subcultured using Dulbecco's Modified Eagle's Medium (DMEM, NACALAI TESQUE, INC.) containing 10% fetal bovine serum and 1% penicillin-streptmycin in a 5% CO2 incubator at 37° C.
(§3) In order to confirm the cytoprotective action of DHMBA on human renal proximal tubular cells HK-2 against oxidative stress, an oxidative stress inducer buthionine sulfoximine (BSO) was used to assess the toxicity and viability of the cells.
(§4) Specifically, the HK-2 cells were seeded into a 96-well plate to be 3.0×10^3 cells/well and cultured for 24 hours.
(§5) Next, BSO and DHMBA were added in an amount of 150 μL/well to have a final concentration of BSO of 100 μM and a final concentration of DHMBA of 1 μM to 500 μM. […] After the plate was allowed to stand for 30 minutes at room temperature, the absorbance at 490 nm was measured using a plate reader (Wallac 1420 ARVO Mx plate reader, PerkinElmer) to measure the cytotoxicity. In addition, a CCK-8 reagent (DOJINDO LABORATORIES) was added in an amount of 10 μL/well to the plate where the cells had been cultured, and after two hours of culture at 37° C., the absorbance at 450 nm was measured using a plate reader (Wallac 1420 ARVO Mx plate reader) to assess the viability of the cells. The toxicity and viability of the cells were calculated from the absorbance value relative to the control (0 μg/mL) (n=5 to 6 for each group).

[7] = system: human renal proximal tubular cells HK-2; assay: CCK-8 cell viability test under BSO oxidative stress; type: cell-based; details: 48 hours
Description: as §2, §3, §4, §5

[8] = system: PPARα/PGC1α/NRF1/TFAM pathway genes in HK-2 cells; assay: qPCR expression of mitochondrial biosynthesis-related genes; type: cell-based, human; details: co-treatment with 100 μM BSO, DHMBA 250 μM and 500 μM
Description: It has been reported that mitochondrial biosynthesis is regulated through activation of the PPARα/PGC1α/NRF1/TFAM pathway (Uittenbogaard M and Chiaramello A, Current pharmaceutical design, 20:[…], 2014).
as §1, with “biosynthesis” for “fusion (OPA1) and genes related to fission (DRP1 and FIS1)”, “(n=3” for “(n=4”

[9] = system: mitochondria of HK-2 cells; assay: Mitochondrial respiration capacity (oxygen consumption rate, extracellular flux analyzer XFp); type: cell-based, human
Description: The action of DHMBA improving mitochondrial respiration capacity under oxidative stress was examined using an extracellular flux analyzer XFp (Agilent Technologies).
The HK-2 cells were seeded into the XFp Cell Culture Miniplate (Agilent Technologies) to be 1.5×10^4 cells/well and cultured for 24 hours. Next, BSO and DHMBA were added in an amount of 200 μL/well to have a final concentration of BSO of 100 μM and a final concentration of DHMBA of 250 μM and 500 μM. After 24 hours of culture, the culture medium was replaced with a running culture medium (XF DMEM Medium, pH 7.4, Agilent Technologies) containing 20 mM GlutaMAX (Gibco), 10 mM Pyruvate (Gibco), and glucose (10 mM), and the cells were cultured for one hour in an incubator at 37° C. without CO2 control. A 24-hour hydrated calibration plate was placed on an extracellular flux analyzer XFp and calibrated. After the calibration was completed, the calibration plate and the cell plate were exchanged, and the oxygen consumption rate (OCR) was measured. The basal respiration rate was measured first, and subsequently, oligomycin (final concentration: 2 μM) was added to inhibit ATP production. Next, FCCP (final concentration: 1 μM) was added, and the maximal respiration rate was measured. Finally, rotenon/antimycin A (final concentration: 0.25 μM) was added, and the respiration rate independent of mitochondria was measured. Each measurement was performed three times for all measurements.

[10] = system: intramitochondrial ROS in HK-2 cells; assay: Intramitochondrial ROS production level (DHR123 staining); type: cell-based, human; details: 24 hours
Description: In order to verify the effect of DHMBA on the production of intramitochondrial ROS promoted by oxidative stress stimulation, the observation and measurement of fluorescence intensity of intramitochondrial ROS were performed using DHR123.
The HK-2 cells were seeded into a black 24-well plate to be 2.0×10^4 cells/well and cultured for 24 hours. Next, BSO and DHMBA were added in an amount of 500 μL/well to have a final concentration of BSO of 100 μM and a final concentration of DHMBA of 250 μM and 500 μM. After 24 hours, a supernatant was removed, a DHR123 reagent (FUJIFILM Wako Pure Chemical Corporation) diluted to 5 μM with serum-free DMEM was added in an amount of 250 μL/well, and the cells were cultured at 37° C. for 40 minutes.
Furthermore, after the cells were washed with PBS, 500 μL of PBS was added, observation was performed, and photos were taken using a fluorescence microscope BZ-9000 (Keyence). Then, after the cells were peeled from the bottom with a scraper and pipetted sufficiently, an amount of 200 μL/well was moved to a black 96-well plate, and fluorescence was measured using a plate reader (Wallac 1420 ARVO Mx plate reader) at an excitation wavelength of 505 nm and a fluorescence wavelength of 534 nm (n=6 for each group).

[11] = co-treatment with 100 μM BSO, DHMBA 250 μM and 500 μM
[12] = 100 μM BSO and 500 μM DHMBA, 24 hours, OCR
[13] = 100 μM BSO alone (oxidative stress stimulation)

COc1c(O)cc(CO)cc1O [DHMBA, 3,5-dihydroxy-4-methoxybenzyl alcohol]
expression level of FIS1 [1]: reduced | cytotoxicity compared with existing antioxidant substances ([2]; earlier finding, background art): less cytotoxic than existing antioxidant substances | activation of radical scavenging ability and the Keap1-Nrf2 pathway, expression induction of antioxidant gene clusters (such as HO-1 and NQO1) ([2]; literature (Fuda 2015; Joko 2017)): confirmed | production level of intracellular ROS [3, 11]: decreased to the same level as that of the control group | mitochondrial fragmentation (morphology) [4, 11]: fragmented mitochondria decreased | expression level of BIK gene [5, 11]: decreased to the same levels as those of the control group | expression level of ENDOG gene [5, 11]: decreased to the same levels as those of the control group | DHMBA concentration that inhibited cytotoxicity ([6]; co-treatment with 100 μM BSO, DHMBA 1 μM to 500 μM): ≥ 3.9 µM | DHMBA concentration that increased cell viability ([7]; co-treatment with 100 μM BSO, CCK-8, DHMBA 1 μM to 500 μM): ≥ 3.9 µM | expression level of PGC1α [8]: increased | expression level of TEAM [8]: increased | mitochondrial ATP production [9, 12]: increased | mitochondrial basal respiration [9, 12]: increased | mitochondrial maximal respiration [9, 12]: increased | accumulation of intramitochondrial ROS [10, 11]: inhibited

CCCCS(=N)(=O)CCC(N)C(=O)O (centres unmarked) [BSO, buthionine sulfoximine, reference compound]
intracellular ROS ([3]; 100 μM BSO alone): increase in intracellular ROS | mitochondrial fragmentation (morphology) [4, 13]: mitochondrial fragmentation was induced | expression level of BIK gene [5, 13]: increased | expression level of ENDOG gene [5, 13]: increased | cytotoxicity ([6]; 100 μM BSO alone (0 μM DHMBA)): strong cytotoxicity | cell viability ([7]; 100 μM BSO alone (0 μM DHMBA), CCK-8): low cell viability | damage to mitochondrial functions (OCR) ([9]; 100 μM BSO alone, 24-hour addition): not recognized | ROS accumulation in mitochondria ([10]; 100 μM BSO alone): ROS accumulation in mitochondria was also observed

— patent US20250387348A1, “NEPHROPROTECTIVE USEFUL AGENT” (WATANABE OYSTER LABORATORY, CO., LTD., priority 2022, published 2025)
